# Laboratory results from patent publication US11857519B2, “Compounds and methods for the targeted degradation of enhancer of zeste homolog 2 polypeptide” (Arvinas Operations, Inc., priority 2016, dated 2024).
# Target: T1, EZH2 (Homo sapiens, UniProt Q15910)
# T1 construct: Protocol of the Cellular Assay of Target Protein Degradation (VCaP Cells, ELISA); endogenous in cells; host or cells: VCaP cells
# Assay: Cellular assay of target protein degradation (VCaP cells, ELISA)
# Format: cell-based
# Settings: 4 hours, protein degradation range at indicated concentration (relative to DMSO control)
# Method: Protocol of the Cellular Assay of Target Protein Degradation (VCaP Cells, ELISA).
# For detection Cell Signaling PathScan Sandwich ELISA Catalog #12850 Lot 11 was used. VCaP cells were cultured in ATCC DMEM+ATCC FBS and plated 40,000/well 100 μl/well in RPMI P/S with 5% CSS Omega (bovine) serum into a 96 well plate. The cells were grown for a minimum of 3 days, dosed with compounds in 0.1% DMSO (diluted with 5% CSS) and incubated with aspiration for 4 hours. 100 μl of 1× Cell Signaling lysis buffer #9803 (36 mL dH2O+4 mL Cell Signaling lysis buffer) was added. The incubation was placed on cold room shaker for 10 minutes at speed 8-9. 5 μl to 100 μL of Diluent was transferred to ELISA plate (0.15 μg/mL−0.075 μg/mL) and stored at 4° C. overnight on cold room shaker speed 5 (gentle swirl) and then shaken next morning at 37° C. for 30 minutes. The preparation was washed 4×200 μl with ELISA wash buffer and aspirated with eight-channel aspirator. 100 μl/well of target protein detection antibody was added after, which the preparation was covered and shaken at 37° C. for 1 hour. 100 μl TMB was added, and the mixture was shaken for 5 min while under observation. When TMB turned light blue, 100 μl of Stop solution was added, and the mixture was shaken and read at 450 nm. Also read at 562 nm for background subtraction.
# T1 sequence (Q15910 whole entry): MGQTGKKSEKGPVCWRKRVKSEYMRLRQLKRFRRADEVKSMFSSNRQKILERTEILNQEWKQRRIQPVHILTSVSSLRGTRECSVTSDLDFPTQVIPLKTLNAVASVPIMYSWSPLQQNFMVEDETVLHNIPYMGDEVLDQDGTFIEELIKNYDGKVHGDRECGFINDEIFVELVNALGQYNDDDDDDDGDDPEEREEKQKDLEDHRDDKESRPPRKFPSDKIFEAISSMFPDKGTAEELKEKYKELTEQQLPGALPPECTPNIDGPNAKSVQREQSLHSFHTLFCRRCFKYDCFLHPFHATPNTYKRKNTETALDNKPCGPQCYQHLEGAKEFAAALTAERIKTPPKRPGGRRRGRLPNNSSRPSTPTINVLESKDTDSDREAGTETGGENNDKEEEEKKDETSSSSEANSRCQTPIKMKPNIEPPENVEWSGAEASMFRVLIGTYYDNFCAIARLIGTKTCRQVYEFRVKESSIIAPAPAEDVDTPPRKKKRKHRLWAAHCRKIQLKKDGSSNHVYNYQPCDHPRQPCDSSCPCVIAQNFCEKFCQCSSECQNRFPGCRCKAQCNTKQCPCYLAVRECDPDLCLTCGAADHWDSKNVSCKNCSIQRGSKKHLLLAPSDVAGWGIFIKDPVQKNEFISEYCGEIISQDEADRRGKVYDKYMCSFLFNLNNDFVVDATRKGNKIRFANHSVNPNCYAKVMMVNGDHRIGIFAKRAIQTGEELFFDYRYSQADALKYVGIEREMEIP
# T1 sequence (O75530 whole entry partner): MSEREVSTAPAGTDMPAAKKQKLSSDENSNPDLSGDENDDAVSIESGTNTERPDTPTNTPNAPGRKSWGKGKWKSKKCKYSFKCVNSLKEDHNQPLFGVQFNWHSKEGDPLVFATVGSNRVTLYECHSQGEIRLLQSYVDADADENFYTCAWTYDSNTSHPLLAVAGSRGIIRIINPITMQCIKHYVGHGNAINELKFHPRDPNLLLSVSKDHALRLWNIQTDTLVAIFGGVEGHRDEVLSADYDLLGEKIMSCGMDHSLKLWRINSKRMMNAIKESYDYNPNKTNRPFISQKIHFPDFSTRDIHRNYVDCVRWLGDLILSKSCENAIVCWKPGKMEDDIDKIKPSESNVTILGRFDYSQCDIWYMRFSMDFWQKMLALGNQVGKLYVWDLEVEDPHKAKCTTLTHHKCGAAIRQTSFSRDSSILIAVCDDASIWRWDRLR
# T1 sequence (Q15022 whole entry partner): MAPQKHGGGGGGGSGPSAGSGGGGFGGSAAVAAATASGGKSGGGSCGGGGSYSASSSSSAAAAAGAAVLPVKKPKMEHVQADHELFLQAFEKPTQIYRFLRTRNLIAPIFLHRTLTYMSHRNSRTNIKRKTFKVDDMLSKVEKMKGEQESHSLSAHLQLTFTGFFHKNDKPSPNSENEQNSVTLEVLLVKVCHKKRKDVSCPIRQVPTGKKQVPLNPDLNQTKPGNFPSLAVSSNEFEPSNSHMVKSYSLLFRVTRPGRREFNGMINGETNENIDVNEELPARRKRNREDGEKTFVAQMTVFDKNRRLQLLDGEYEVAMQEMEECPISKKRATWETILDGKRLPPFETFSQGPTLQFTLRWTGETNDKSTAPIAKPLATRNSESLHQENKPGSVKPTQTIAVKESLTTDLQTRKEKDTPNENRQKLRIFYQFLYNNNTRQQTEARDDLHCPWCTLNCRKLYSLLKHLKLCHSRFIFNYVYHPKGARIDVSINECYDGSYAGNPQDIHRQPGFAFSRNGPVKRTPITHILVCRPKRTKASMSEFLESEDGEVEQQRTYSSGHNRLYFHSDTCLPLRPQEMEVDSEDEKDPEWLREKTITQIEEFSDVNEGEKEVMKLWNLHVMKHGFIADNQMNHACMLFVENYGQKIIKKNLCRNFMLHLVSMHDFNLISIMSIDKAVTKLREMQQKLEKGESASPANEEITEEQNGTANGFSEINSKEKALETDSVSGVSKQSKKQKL
row,percent target protein degradation class,SMILES
1,A (A = degradation more than 60%),"CCN(c1cc(-c2ccc(CCCOCCCCC(=O)N[C@H](C(=O)N3C[C@H](O)C[C@H]3C(=O)N[C@@H](C)c3ccc(-c4scnc4C)cc3)C(C)(C)C)cc2)cc(C(=O)NCc2c(C)cc(C)[nH]c2=O)c1C)C1CCOCC1 [Compound 88, (2S,4R)-1-((S)-2-(5-(3-(3′-(((4,6-dimethyl-2-oxo-1,2-dibydropyridin-3-yl)methyl)carbamoyl)-5′-(ethyl(tetrahydro-2H-pyran-4-yl)amino)-41-methyl-[1,1′-biphenyl]-4-yl)propoxy)pentanamido)-3,3-dimethylbutanoyl)-4-hydroxy-N-((S)-1-(4-(4-methylthiazol-5-yl)phenyl)ethyl)pyrrolidine-2-carboxamide]"
2,B (B = degradation between 30% and 60%),"CCN(c1cc(-c2ccc(OCCOCCOc3ccc4c(c3)C(=O)N(C3CCC(=O)NC3=O)C4=O)cc2)cc(C(=O)NCc2c(C)cc(C)[nH]c2=O)c1C)C1CCOCC1 (stereo not drawn) [Compound 57, N-[(4,6-dimethyl-2-oxo-1,2-dihydropyridin-3-yl)methyl]-5-{4-[2-(2-{[2-(2,6-dioxopiperidin-3-yl)-1,3-dioxo-2,3-dihydro-1H-isoindol-5-yl]oxy}ethoxy)ethoxy]phenyl}-3-[ethyl(oxan-4-yl)amino]-2-methylbenzamide]"
3,B (B = degradation between 30% and 60%),"CCN(c1cc(-c2ccc(CN3CCC(CN4CCN(c5ccc6c(c5)C(=O)N(C5CCC(=O)NC5=O)C6=O)CC4)CC3)cc2)cc(C(=O)NCc2c(C)cc(C)[nH]c2=O)c1C)C1CCOCC1 (stereo not drawn) [Compound 115, N-((4,6-dimethyl-2-oxo-1,2-dihydiopyridin-3-yl)methyl)-4′-((4-((4-(2-(2,6-dioxopiperidin-3-yl)-1,3-dioxoisoindolin-5-yl)piperazin-1-yl)methyl)piperidin-1-yl)methyl)-5-(ethyl(tetrahydro-2H-pyran-4-yl)amino)-4-methyl-[1,1′-biphenyl]-3-carboxamide]"
4,B (B = degradation between 30% and 60%),"CCN(c1cc(-c2ccc(N3CCN(CCCOCCOCC(=O)N[C@H](C(=O)N4C[C@H](O)C[C@H]4C(=O)N[C@@H](C)c4ccc(-c5scnc5C)cc4)C(C)(C)C)CC3)cc2)cc(C(=O)NCc2c(C)cc(C)[nH]c2=O)c1C)C1CCOCC1 [Compound 119, (2S,4R)-1-((S)-2-(2-(2-(3-(4-(3′-(((4,6-dimethyl-2-oxo-1,2-dihydropyridin-3-yl)methyl)carbamoyl)-5′-(ethyl(tetrahydro-2H-pyran-4-yl)amino)-4′-methyl-[1,1′-biphenyl]-4-yl)piperazin-1-yl)propoxy)ethoxy)acetamido)-3,3-dimethylbutanoyl)-4-hydroxy-N-((S)-1-(4-(4-methylthiazol-5-yl)phenyl)ethyl)pyrrolidine-2-carboxamide]"
5,A (A = degradation more than 60%),"CCN(c1cc(-c2ccc(CN3CCN(CCOCCOCC(=O)N[C@H](C(=O)N4C[C@H](O)C[C@H]4C(=O)N[C@@H](C)c4ccc(-c5scnc5C)cc4)C(C)(C)C)CC3)cc2)cc(C(=O)NCc2c(C)cc(C)[nH]c2=O)c1C)C1CCOCC1 [Compound 114, (2S,4R)-1-((S)-2-(2-(2-(2-(4-((3′-(((4,6-dimethyl-2-oxo-1,2-dihydropyridin-3-yl)methyl)carbamoyl)-5′-(ethyl(tetrahydro-2H-pyran-4-yl)amino)-4′-methyl-[1,1′-biphenyl]-4-yl)methyl)piperazin-1-yl)ethoxy)ethoxy)acetamido)-3,3-dimethylbutanoyl)-4-hydroxy-N-((S)-1-(4-(4-methylthiazol-5-yl)phenyl)ethyl)pyrrolidine-2-carboxamide]"
6,B (B = degradation between 30% and 60%),"CCN(c1cc(-c2ccc(OCCOCc3ccc4c(c3)C(=O)N([C@H](C(=O)N3C[C@H](O)C[C@H]3C(=O)N[C@@H](C)c3ccc(-c5scnc5C)cc3)C(C)C)C4)cc2)cc(C(=O)NCc2c(C)cc(C)[nH]c2=O)c1C)C1CCOCC1 [Compound 108, (2S,4R)-1-((S)-2-(6-((2-((3′-(((4,6-dimethyl-2-oxo-1,2-dihydropyridin-3-yl)methyl)carbamoyl)-5′-(ethyl(tetrahydro-2H-pyran-4-yl)amino)-4′-methyl-[1,1′-biphenyl]-4-yl)oxy)ethoxy)methyl)-1-oxoisoindolin-2-yl)-3-methylbutanoyl)-4-hydroxy-N-((S)-1-(4-(4-methylthiazol-5-yl)phenyl)ethyl)pyrrolidine-2-carboxamide]"

# The remaining lines, values behind:
row,SMILES,percent target protein degradation class
1,"CCN(c1cc(-c2ccc(OCCCCCOc3cc(C(C(=O)N4C[C@H](O)C[C@H]4C(=O)N[C@@H](C)c4ccc(-c5scnc5C)cc4)C(C)C)on3)cc2)cc(C(=O)NCc2c(C)cc(C)[nH]c2=O)c1C)C1CCOCC1 (stereo partly drawn) [Compound 104, (2S,4R)-1-(2-(3-(5-(3′-((4,6-dimethyl-2-oxo-1,2-dihydropyridin-3-yl)methylcarbamoyl)-5′-(ethyl(tetrahydro-2H-pyran-4-yl)amino)-4′-methylbiphenyl-4-yloxy)pentyloxy)isoxazol-5-yl)-3-methylbutanoyl)-4-hydroxy-N—((S)-1-(4-(4-methylthiazol-5-yl)phenyl)ethyl)pyrrolidine-2-carboxamide]",A (A = degradation more than 60%)
2,"CCN(c1cc(-c2ccc(OCCOCCOCCOCCOCCOCCNc3cccc4c3C(=O)N(C3CCC(=O)NC3=O)C4=O)cc2)cc(C(=O)NCc2c(C)cc(C)[nH]c2=O)c1C)C1CCOCC1 (stereo not drawn) [Compound 19, N-[(4,6-dimethyl-2-oxo-1,2-dihydropyridin-3-yl)methyl]-5-[4-({1-[2-(2,6-dioxopiperidin-3-yl)-1,3-dioxo-2,3-dihydro-1H-isoindol-4-yl]-4,7,10,13,16-pentaoxa-1-azaoctadecan-18-yl}oxy)phenyl]-3-[ethyl(oxan-4-yl)amino]-2-methylbenzamide]",B (B = degradation between 30% and 60%)
3,"CCN(c1cc(-c2ccc(CN3CCN(CCCCOCC(=O)N[C@H](C(=O)N4C[C@H](O)C[C@H]4C(=O)N[C@@H](C)c4ccc(-c5scnc5C)cc4)C(C)(C)C)CC3)cc2)cc(C(=O)NCc2c(C)cc(C)[nH]c2=O)c1C)C1CCOCC1 [Compound 117, (2S,4R)-1-((S)-2-(2-(4-(4-((3′-(((4,6-dimethyl-2-oxo-1,2-dihydropyridin-3-yl)methyl)carbamoyl)-5′-(ethyl(tetrahydro-2H-pyran-4-yl)amino)-4′-methyl-[1,1′-biphenyl]-4-yl)methyl)piperazin-1-yl)butoxy)acetamido)-3,3-dimethylbutanoyl)-4-hydroxy-N-((S)-1-(4-(4-methylthiazol-5-yl)phenyl)ethyl)pyrrolidine-2-carboxamide]",A (A = degradation more than 60%)
4,"Cc1cc(C)c(CNC(=O)c2c(C)n(C(C)C3CCN(C(=O)COCCOCCOCCOCCOCCNc4cccc5c4C(=O)N(C4CCC(=O)NC4=O)C5=O)CC3)c3ccccc23)c(=O)[nH]1 (stereo not drawn) [Compound 12, N-[(4,6-dimethyl-2-oxo-1,2-dihydropyridin-3-yl)methyl]-1-[1-(1-{1-[2-(2,6-dioxopiperidin-3-yl)-1,3-dioxo-2,3-dihydro-1H-isoindol-4-yl]-4,7,10,13,16-pentaoxa-1-azaoctadecanoyl}piperidin-4-yl)ethyl]-2-methyl-1H-indole-3-carboxamide]",B (B = degradation between 30% and 60%)
5,"CCN(c1cc(-c2ccc(OCCOCCOCC(=O)N[C@H](C(=O)N3C[C@H](O)C[C@H]3C(=O)N[C@@H](C)c3ccc(-c4scnc4C)cc3)C(C)(C)C)cc2)cc(C(=O)NCc2c(C)cc(C)[nH]c2=O)c1C)C1CCOCC1 [Compound 43, (2S,4R)-1-[(2S)-2-[2-(2-{2-[4-(3-{[(4,6-dimethyl-2-oxo-1,2-dihydropyridin-3-yl)methyl]carbamoyl}-5-[ethyl(oxan-4-yl)amino]-4-methylphenyl)phenoxy]ethoxy}ethoxy)acetamido]-3,3-dimethylbutanoyl]-4-hydroxy-N-[(1S)-1-[4-(4-methyl-1,3-thiazol-5-yl)phenyl]ethyl]pyrrolidine-2-carboxamide]",A (A = degradation more than 60%)
6,"CCN(c1cc(-c2ccc(OCCOCCOCCOCCOc3cc(-c4scnc4C)ccc3CNC(=O)[C@@H]3C[C@@H](O)CN3C(=O)[C@H](C(C)C)N3Cc4ccccc4C3=O)cc2)cc(C(=O)NCc2c(C)cc(C)[nH]c2=O)c1C)C1CCOCC1 [Compound 36, (2S,4R)-N-{[2-({1-[4-(3-{[(4,6-dimethyl-2-oxo-1,2-dihydropyridin-3-yl)methyl]carbamoyl}-5-[ethyl(oxan-4-yl)amino]-4-methylphenyl)phenyl]-1,4,7,10-tetraoxadodecan-12-yl}oxy)-4-(4-methyl-1,3-thiazol-5-yl)phenyl]methyl}-4-hydroxy-1-[(2S)-3-methyl-2-(1-oxo-2,3-dihydro-1H-isoindol-2-yl)butanoyl]pyrrolidine-2-carboxamide]",B (B = degradation between 30% and 60%)
